The supplement of paper PMC11451515

Tested on: NOMO1
Experiment: cell viability relative to DMSO control; higher = less cytotoxic
Settings: 48 h
How it was run: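 Viability, reported as a per-plate percentage of DMSO wells with cell-free wells as background, came from CellTiter-Glo One luminescence. Reading took place after 48 h at 37°C. Before that, NOMO1 or SEM (500 cells/well) or P12-Ichikawa (1000 cells/well) leukemia cells, adapted for at least four passages in each medium, were seeded in 1536-well plates (5 μl) and pin-dosed with library compounds in DMSO, 47 μM to 0.79 nM over 11 threefold points.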

[1] = HPLM + 10% dialyzed FBS, 0.000781 µM
[2] = HPLM + 10% dialyzed FBS, 0.00234 µM
[3] = HPLM + 10% dialyzed FBS, 0.00702 µM
[4] = HPLM + 10% dialyzed FBS, 0.0211 µM
[5] = HPLM + 10% dialyzed FBS, 0.0632 µM
[6] = HPLM + 10% dialyzed FBS, 0.19 µM
[7] = HPLM + 10% dialyzed FBS, 0.569 µM
[8] = HPLM + 10% dialyzed FBS, 1.71 µM
[9] = HPLM + 10% dialyzed FBS, 5.12 µM
[10] = HPLM + 10% dialyzed FBS, 15.4 µM
[11] = HPLM + 10% dialyzed FBS, 46.1 µM
[12] = RPMI 5 mM glucose + 10% FBS, 0.000781 µM
[13] = RPMI 5 mM glucose + 10% FBS, 0.00234 µM
[14] = RPMI 5 mM glucose + 10% FBS, 0.00702 µM
[15] = RPMI 5 mM glucose + 10% FBS, 0.0211 µM
[16] = RPMI 5 mM glucose + 10% FBS, 0.0632 µM
[17] = RPMI 5 mM glucose + 10% FBS, 0.19 µM
[18] = RPMI 5 mM glucose + 10% FBS, 0.569 µM
[19] = RPMI 5 mM glucose + 10% FBS, 1.71 µM
[20] = RPMI 5 mM glucose + 10% FBS, 5.12 µM
[21] = RPMI 5 mM glucose + 10% FBS, 15.4 µM
[22] = RPMI 5 mM glucose + 10% FBS, 46.1 µM
[23] = RPMI 5 mM glucose + 10% dialyzed FBS, 0.000781 µM
[24] = RPMI 5 mM glucose + 10% dialyzed FBS, 0.00234 µM
[25] = RPMI 5 mM glucose + 10% dialyzed FBS, 0.00702 µM
[26] = RPMI 5 mM glucose + 10% dialyzed FBS, 0.0211 µM
[27] = RPMI 5 mM glucose + 10% dialyzed FBS, 0.0632 µM
[28] = RPMI 5 mM glucose + 10% dialyzed FBS, 0.19 µM
[29] = RPMI 5 mM glucose + 10% dialyzed FBS, 0.569 µM
[30] = RPMI 5 mM glucose + 10% dialyzed FBS, 1.71 µM
[31] = RPMI 5 mM glucose + 10% dialyzed FBS, 5.12 µM
[32] = RPMI 5 mM glucose + 10% dialyzed FBS, 15.4 µM
[33] = RPMI 5 mM glucose + 10% dialyzed FBS, 46.1 µM

Row | SMILES | cell viability [1] | cell viability [2] | cell viability [3] | cell viability [4] | cell viability [5] | cell viability [6] | cell viability [7] | cell viability [8] | cell viability [9] | cell viability [10] | cell viability [11] | cell viability [12] | cell viability [13] | cell viability [14] | cell viability [15] | cell viability [16] | cell viability [17] | cell viability [18] | cell viability [19] | cell viability [20] | cell viability [21] | cell viability [22] | cell viability [23] | cell viability [24] | cell viability [25] | cell viability [26] | cell viability [27] | cell viability [28] | cell viability [29] | cell viability [30] | cell viability [31] | cell viability [32] | cell viability [33]
1 | Nc1ncnc2c1c(-c1cccc(OCc3ccccc3)c1)cn2C1CC(CN2CCCC2)C1 (stereo unspecified) | 113% | 133% | 124% | 124% | 141% | 134% | 119% | 90.4% | 94.2% | 78.1% | 36.2% |  |  |  |  |  |  |  |  |  |  |  |  |  |  |  |  |  |  |  |  |  | 
2 | N#C/N=C(\NCCCCCCOc1ccc(Cl)cc1)Nc1ccncc1 | 49.3% | 47.6% | 19.9% | 15.5% | 12.6% | 11.9% | 9.75% | 9.76% | 9.75% | 8.47% | 6.05% | 61% | 41.9% | 22% | 19.2% | 15.7% | 9.97% | 11.4% | 8.82% | 9.25% | 8.91% | 6.02% | 81.6% | 58.1% | 26.1% | 21% | 12.5% | 12.2% | 9.8% | 8.26% | 7.27% | 6.87% | 5.38%
3 | C[C@H]1O[C@H](C[C@H](O)[C@@H]1O)O[C@H]2[C@@H](O)C[C@@H](O[C@@H]2C)O[C@H]3[C@@H](O)C[C@@H](O[C@@H]3C)O[C@H]4CC[C@@]5(C)[C@H](CC[C@@H]6[C@@H]5C[C@@H](O)[C@]7(C)[C@H](CC[C@]67O)C/8=C/C(=O)OC8)C4 | 120% | 119% | 136% | 138% | 97.2% | 25.3% | 12.2% | 8.48% | 8.1% | 7.39% | 5.28% | 113% | 112% | 120% | 107% | 107% | 95.8% | 21.9% | 9.57% | 11% | 12.1% | 9.59% | 120% | 121% | 109% | 115% | 114% | 57.2% | 13.5% | 7.93% | 7.1% | 7.81% | 7.62%
4 | COc1cc(N2CCC(N(C)C)CC2)ccc1Nc1ncc(Cl)c(Nc2ccccc2P(C)(C)=O)n1 |  |  |  |  |  |  |  |  |  |  |  | 123% | 116% | 130% | 118% | 124% | 115% | 111% | 102% | 21.3% | 23.8% | 23.2% | 115% | 110% | 128% | 117% | 123% | 124% | 107% | 94.7% | 31.4% | 21.3% | 27.6%
5 | OCCC#Cc1nc(-c2ccc(F)cc2)c(-c2ccncc2)n1CCCc1ccccc1 |  |  |  |  |  |  |  |  |  |  |  | 119% | 122% | 122% | 135% | 127% | 138% | 150% | 136% | 128% | 132% | 116% |  |  |  |  |  |  |  |  |  |  | 
6 | O=C1NC(=O)/C(=C/c2ccc(-c3ccc(F)cc3O)o2)S1 | 106% | 126% | 125% | 130% | 127% | 114% | 125% | 91.8% | 103% | 82.7% | 72.9% | 113% | 108% | 104% | 114% | 112% | 105% | 103% | 94.7% | 95.7% | 92.7% | 84.9% | 112% | 117% | 114% | 103% | 113% | 116% | 91.6% | 93.9% | 91.7% | 75.8% | 66.9%
7 | CCN(c1ccccc1)c1cc(NC)[n+](C)c(C)n1 | 121% | 123% | 109% | 120% | 130% | 115% | 116% | 123% | 107% | 109% | 111% | 115% | 104% | 106% | 110% | 101% | 104% | 123% | 122% | 112% | 95.5% | 103% | 106% | 111% | 112% | 124% | 122% | 116% | 126% | 113% | 103% | 108% | 108%
8 | NC(=O)Nc1cc(-c2cccc(F)c2)sc1C(=O)N[C@H]1CCCNC1 | 125% | 102% | 141% | 107% | 147% | 92.1% | 59.2% | 42% | 24.7% | 26.9% | 26.2% |  |  |  |  |  |  |  |  |  |  |  | 121% | 122% | 136% | 134% | 136% | 139% | 81.7% | 33.2% | 24.4% | 21.6% | 23.4%
9 | OCCn1cc(-c2cnc3nnn(Cc4ccc5ncccc5c4)c3n2)cn1 | 106% | 104% | 123% | 110% | 102% | 118% | 92.2% | 103% | 92.1% | 89.7% | 63.2% | 99.4% | 110% | 112% | 99.9% | 93.2% | 116% | 110% | 107% | 102% | 105% | 96.5% | 93.3% | 105% | 103% | 112% | 105% | 91.7% | 97.1% | 103% | 86.8% | 80.6% | 82.2%
